These results are taken from patent publication US6849455B1, “Enhanced recovery of transformed cells” (New York University, priority 2000, dated 2005).

Experiment [1] relates to E. coli. Nature of the experiment: Supplements to rich/selective media in RepFIC transformations. The following applies: for effective as substitute for the L-cysteine effect in RepFIC transformations: supplement to rich media, glutathione 300 micrograms per ml; for increase in the number of transformants: supplement added to the selective medium. In kind it is cell-based.

Experiment [2] deals with C600. Nature of the experiment: Transformation of scL and scH RepFIC plasmid DNAs into C600. In kind it is cell-based, E. coli. The following applies: supplement added after electroporation and/or during selection. The procedure:
The package consists of homocysteine, ferrous sulfate, and magnesium sulfate.
To ascertain that the scL phenotype was heritable under all circumstances and viable, scL DNA was transferred into C600 by electroporation. Selection of transformants was carried out without additional supplements or in the presence of cysteine or glutathione. […] Thus, although an additional source of cysteine is still required under the conditions of this transformation, cysteine becomes toxic at the concentration that was previously used.
In order to identify the contribution of co-transmitted molecules that are easily removed, scL DNA was in vitro salt-stripped before being transformed. […] Plasmid preparations are associated with several proteins, of about 32 kda in size, which could be the dam-methyltransferase (GenBank accession no. J01600). Therefore, it is possible that the dam-methyltransferase is one significant component removed by the salt treatment.
The methylation reaction per se could have become limiting as a result of the removal of methyltransferase, and activation of the biosynthesis of S-adenosylmethionine (SAM), the methyl donor in the methylation reaction, could help overcome low enzyme levels in the cell. Homocysteine is a known co-inducer of the MetR regulon (Schell, 1993), and thus activates the synthesis of SAM (Palmer and Marinus, 1994). […]

Experiment [3] relates to C600. Nature of the experiment: Plasmid yield after overnight growth with glycerol as carbon source. In kind it is cell-based, E. coli. The following applies: homocysteine and ferrous sulfate supplements. The procedure: (§1) Glycerol, when used as a carbon source, avoids catabolite repression. The plasmid was prepared from the following hosts grown overnight with the supplements homocysteine and ferrous sulfate, using glycerol as a carbon source: C600 containing the non-imprinted plasmid, the lon host Δlon-510 (containing the imprinted scL plasmid), and C600 containing the imprinted scL plasmid. […] One interpretation of the difference seen between lanes 3-4 and 5-6 is that when Lon is present (C600) and there is no catabolite repression, the post-replicative steps occur at a sufficient rate to adjust for the recovery of the final product, scH plasmid. When Lon is absent, stimulation of steps occurring after normal Lon-processing are ineffective because the substrate for these steps is insufficient.

Experiment [4] has as its system lon host Δlon-510. Described as above. In kind it is cell-based, E. coli. The following applies: homocysteine and ferrous sulfate supplements. The procedure: as §1
The subject of experiment [5] is C600 hosts. Conditions: additives: cysteine, cystine, or glutathione.
Source text: Single colonies that were normal in appearance, selected after transformation of C600 hosts in the presence of cysteine (Table 1, row 1) were resuspended in liquid medium. Aliquots were streaked onto spectinomycin-containing plates and spectinomycin plates with the following additives: cysteine, cystine, or glutathione.
Single colonies selected after transformation of C600 hosts in the presence of cysteine (Table 1, row 1) were initially difficult to grow.

Regarding `CC(=O)NC(CS)C(=O)O` (racemic) [-acetyl-D,L-cysteine, N-acetyl-D,L-cysteine], the “effective as substitute for the L-cysteine effect in RepFIC transformations” value (“effective as substitute” for short) in experiment [1] is “None of these was effective”.
Consider `N[C@@H](CCS)C(=O)O` [Homocysteine, homocysteine], for which, in experiment [2], the “recovery of transformants with highly purified (salt-stripped) transforming DNA” value is reported as “rescued the transforming ability”.
Turning to `N[C@@H](CS(=O)(=O)O)C(=O)O` [L0cysteic acid, L-cysteic acid], in experiment [1], the “effective as substitute” value is reported as “None of these was effective”.
Turning to `N=C(N)NCCC[C@H](N)C(=O)O` [L-arginine], the “effective as substitute” value in experiment [1] is recorded as “None of these was effective”.
As for `N[C@@H](CS)C(=O)O` [L-cysteine], the “recovery of transformants with highly purified (salt-stripped) transforming DNA” value in experiment [2] is given as “no longer helped in the recovery of transformants”. The “optimal concentration of cysteine” value in experiment [1] (selective medium, RepFIC transformation) was determined as 400 micrograms per ml. For the same compound, the “increase in the number of transformants” value in experiment [1] (RepFIC) is ~10^3 fold.
`N[C@@H](CSSC[C@H](N)C(=O)O)C(=O)O` [L-cystine]: in experiment [1], the “effective as substitute” value was “None of these was effective”.
The same measure, in the same setting: the entry for `CSCC[C@H](N)C(=O)O` [L-methionine] is “None of these was effective”.
In the case of `O=S(=O)([O-])[O-].[Mg+2]` [Magnesium sulfate, magnesium sulfate], the “increase in the transformation efficiency” value in experiment [1] (supplement added after electroporation, RepFIC) is listed as “no effect”. For the same compound, the “increase in the number of transformants” value in experiment [1] (RepFIC) is on record as “no effect”.
As for `OCC(O)CO` [glycerol], the “increase in yield of plasmid” value in experiment [3] and in experiment [4] was 5 to 10 fold each time.
Take glutamyl-cysteinylglycine [glutathione]: the “number of colonies obtained” value in experiment [1] (glutathione 300 micrograms per ml compared to 400 micrograms cysteine per ml) is given as “the same as with cysteine”. Besides, the “effective as substitute” value in experiment [1] was “effective”. The “growth of cysteine-selected transformants on spectinomycin plates with additive” value in experiment [5] is given as “only grew on the glutathione-supplemented plates”.
